{"source": "patent US20080312184A1", "about": "(priority 2005, published 2008)", "key": {"[1]": {"test_system": "alternaria leaf spot pathogen of apples", "experiment": "Control Test on Alternaria Leaf Spot of Apples", "assay_type": "in vivo, apples (cultivar: ourin)", "details": "Table 5, single active ingredient, examined after 20 days", "description": "After a liquid chemical was dried, 10 trees attacked by alternaria leaf spot pathogen of apples which were previously arranged to be diseased were placed on the windward side and apples of test pots placed on the leeward side by wind of an air conditioner were wind-inoculated."}, "brown patch pathogen": {"test_system": "brown patch pathogen", "experiment": "Control Test on Brown Patch of Turf Grass", "assay_type": "in vivo, grass (cultivar: Pentocross)", "details": "Table 6, single active ingredient, soaked into soil, kept for 20 days", "description": "Then, the area ratio of brown patch pathogen-attacked portion to the whole surface of the pot was examined according to the same index as in Test Example 1."}}}
{"smiles": "CC(C)CC(C)c1sccc1NC(=O)c1cn(C)nc1C(F)(F)F", "note": "(racemic) [P (penthiopyrad), (RS)—N-[2-(1,3-dimethylbutyl)thiophen-3-yl]-1-methyl-3-tri fluoromethyl-1H-pyrazole-4-carboxamide]", "values": [{"measurement": "Control Value", "setting": "[1]; treated concentration 10 ppm", "value": 50}, {"measurement": "Control Value", "setting": "brown patch pathogen; treated concentration 10 ppm", "value": 53}]}
{"smiles": "CCCCCCCCCCCCNC(=N)N", "note": "[Dodine, dodine]", "values": [{"measurement": "Control Value", "setting": "[1]; treated concentration 50 ppm", "value": 44}]}
{"smiles": "O=C1C(Cl)=C(Cl)C(=O)N1c1ccc(F)cc1", "note": "[Fluoroimide, fluoroimide]", "values": [{"measurement": "Control Value", "setting": "[1]; treated concentration 30 ppm", "value": 45}]}
{"smiles": "Clc1ccc(CSC(Cn2cncn2)=Nc2ccc(Cl)cc2Cl)cc1", "note": "[Imibenconazole, imibenconazole]", "values": [{"measurement": "Control Value", "setting": "[1]; treated concentration 10 ppm", "value": 42}]}
{"smiles": "CC1(C)COC(C)(CCCc2ccc(Cl)cc2)N1C(=O)n1ccnc1.CC1(C)COC(C)(CCCc2ccc(Cl)cc2)N1C(=O)n1ccnc1.O=C(O)/C=C/C(=O)O", "note": "(centres unmarked) [Oxpoconazole fumarate, oxpoconazole fumarate]", "values": [{"measurement": "Control Value", "setting": "[1]; treated concentration 10 ppm", "value": 46}]}
{"smiles": "CC1=C(C(=O)Nc2ccccc2)S(=O)(=O)CCO1", "note": "[Oxycarboxin, oxycarboxin]", "values": [{"measurement": "Control Value", "setting": "brown patch pathogen; treated concentration 20 ppm", "value": 42}]}
{"smiles": "C[Si](C)(C)CC(O)(Cn1cncn1)c1ccc(F)cc1", "note": "(centres unmarked) [Simeconazole, simeconazole]", "values": [{"measurement": "Control Value", "setting": "brown patch pathogen; treated concentration 10 ppm", "value": 48}]}
